According to the supplement of paper PMC10627819:

Columns and labels:
S. aureus DSM 20231 [1] = assay: Bliss interaction score (quartile over a dose matrix) (fitness difference); higher = more antagonism (negative = synergy)
Outline: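 The Bliss score takes observed fitness and subtracts the expected fitness, calculated as a product of single-drug fitness values. Those single-drug values were inferred from the combination data. Fitness is OD595 at entry into stationary phase divided by the plate's robust no-drug mean, capped at 1, and the score is summarised by quartiles across technical, biological and donor/recipient replicates.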

S. aureus Newman = assay: fitness (endpoint OD595 vs no drug) (fraction); higher = more growth
Outline: (§1)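 Fitness compares growth at the stationary-phase transition with the robust mean of no-drug control wells, as a ratio of optical densities. The ratio is capped at 1. Wells of 384-well plates held 30 µl, or 55 µl for S. pneumoniae, inoculated at OD595 0.01. Readings at OD595 every 30 min for 14 h at 37 °C were corrected against the first reading.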

S. aureus DSM 20231 [2] = assay: as above
Outline: as §1

S. pneumoniae D39V = assay: as above
Outline: as §1

[3] = first compound 0.0625 µg/mL, partner 0.375 µg/mL
[4] = first compound 0.0625 µg/mL, partner 0.75 µg/mL
[5] = first compound 0.0625 µg/mL, partner 1.5 µg/mL
[6] = first compound 0.125 µg/mL, partner 0.375 µg/mL
[7] = first compound 0.125 µg/mL, partner 0.75 µg/mL
[8] = first compound 0.25 µg/mL, partner 0.375 µg/mL
[9] = first compound 0.25 µg/mL, partner 0.75 µg/mL
[10] = first compound 0.25 µg/mL, partner 1.5 µg/mL
[11] = first compound 0.125 µg/mL, partner 0.0195 µg/mL
[12] = first compound 0.125 µg/mL, partner 0.039 µg/mL
[13] = first compound 0.125 µg/mL, partner 0.078 µg/mL
[14] = first compound 0.25 µg/mL, partner 0.0195 µg/mL
[15] = first compound 0.25 µg/mL, partner 0.039 µg/mL
[16] = first compound 0.25 µg/mL, partner 0.078 µg/mL
[17] = first compound 0.5 µg/mL, partner 0.0195 µg/mL
[18] = first compound 0.5 µg/mL, partner 0.039 µg/mL
[19] = first compound 0.5 µg/mL, partner 0.078 µg/mL
[20] = first compound 0.125 µg/mL, partner 0.0156 µg/mL
[21] = first compound 0.125 µg/mL, partner 0.0312 µg/mL
[22] = first compound 0.125 µg/mL, partner 0.0625 µg/mL
[23] = first compound 0.25 µg/mL, partner 0.0156 µg/mL
[24] = first compound 0.25 µg/mL, partner 0.0312 µg/mL
[25] = first compound 0.25 µg/mL, partner 0.0625 µg/mL
[26] = first compound 0.5 µg/mL, partner 0.0156 µg/mL
[27] = first compound 0.5 µg/mL, partner 0.0312 µg/mL
[28] = first compound 0.5 µg/mL, partner 0.0625 µg/mL
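Throughout, for Bliss interaction score (quartile over a dose matrix): first quartile when negative (synergy) and third quartile when positive (antagonism).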
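Throughout, for fitness (endpoint OD595 vs no drug): OD595 on entry to stationary phase over no-drug wells; at most 1.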

CC1(C)S[C@@H]2[C@H](NC(=O)[C@H](N)c3ccc(O)cc3)C(=O)N2[C@H]1C(=O)O [Amoxicillin] + Cc1ccc(-c2cc(C(F)(F)F)nn2-c2ccc(S(N)(=O)=O)cc2)cc1 [Celecoxib]
Bliss interaction score (S. aureus DSM 20231 [1]): 0.185

CC1(C)S[C@@H]2[C@H](NC(=O)[C@H](N)c3ccc(O)cc3)C(=O)N2[C@H]1C(=O)O [Amoxicillin] + N[C@@H]1CONC1=O [Cycloserine D]
fitness (S. aureus Newman; [3]): 0.889 | fitness (S. aureus Newman; [4]): 0.879 | fitness (S. aureus Newman; [5]): 0.861 | fitness (S. aureus Newman; [6]): 0.875 | fitness (S. aureus Newman; [7]): 0.91 | fitness (S. aureus Newman; first compound 0.125 µg/mL, partner 1.5 µg/mL): 0.851 | fitness (S. aureus Newman; [8]): 0.811 | fitness (S. aureus Newman; [9]): 0.821 | fitness (S. aureus Newman; [10]): 0.8 | fitness (S. aureus DSM 20231 [2]; [3]): 0.579 | fitness (S. aureus DSM 20231 [2]; [4]): 0.562 | fitness (S. aureus DSM 20231 [2]; [5]): 0.554 | fitness (S. aureus DSM 20231 [2]; [6]): 0.382 | fitness (S. aureus DSM 20231 [2]; [7]): 0.368 | fitness (S. aureus DSM 20231 [2]; [8]): 0.0345 | fitness (S. aureus DSM 20231 [2]; [9]): 0.0204 | fitness (S. aureus DSM 20231 [2]; [10]): 0.0264 | fitness (S. aureus DSM 20231 [2]; first compound 0.5 µg/mL, partner 0.375 µg/mL): 0.0039 | fitness (S. aureus DSM 20231 [2]; first compound 0.5 µg/mL, partner 0.75 µg/mL): 0.0079 | fitness (S. aureus DSM 20231 [2]; first compound 0.5 µg/mL, partner 1.5 µg/mL): 0.0072

CC1(C)S[C@@H]2[C@H](NC(=O)[C@H](N)c3ccc(O)cc3)C(=O)N2[C@H]1C(=O)O [Amoxicillin] + O=C(O)[C@H]1/C(=C/CO)O[C@@H]2CC(=O)N21 [Clavulanic acid]
fitness (S. aureus Newman; first compound 0.0625 µg/mL, partner 0.03125 µg/mL, one replicate): 0.895 | fitness (S. aureus Newman; first compound 0.0625 µg/mL, partner 0.0625 µg/mL, one replicate): 0.816 | fitness (S. aureus Newman; first compound 0.0625 µg/mL, partner 0.125 µg/mL, one replicate): 0.768 | fitness (S. aureus Newman; first compound 0.125 µg/mL, partner 0.03125 µg/mL, one replicate): 0.831 | fitness (S. aureus Newman; first compound 0.125 µg/mL, partner 0.0625 µg/mL, one replicate): 0.809 | fitness (S. aureus Newman; first compound 0.125 µg/mL, partner 0.125 µg/mL, one replicate): 0.639 | fitness (S. aureus Newman; first compound 0.25 µg/mL, partner 0.03125 µg/mL, one replicate): 0.717 | fitness (S. aureus Newman; first compound 0.25 µg/mL, partner 0.0625 µg/mL, one replicate): 0.628 | fitness (S. aureus Newman; first compound 0.25 µg/mL, partner 0.125 µg/mL, one replicate): 0.606 | fitness (S. pneumoniae D39V; first compound 0.0008 µg/mL, partner 0.5 µg/mL): 0.913 | fitness (S. pneumoniae D39V; first compound 0.0008 µg/mL, partner 1 µg/mL): 0.886 | fitness (S. pneumoniae D39V; first compound 0.0008 µg/mL, partner 2 µg/mL): 0.812 | fitness (S. pneumoniae D39V; first compound 0.0015 µg/mL, partner 0.5 µg/mL): 0.945 | fitness (S. pneumoniae D39V; first compound 0.0015 µg/mL, partner 1 µg/mL): 0.87 | fitness (S. pneumoniae D39V; first compound 0.0015 µg/mL, partner 2 µg/mL): 0.819 | fitness (S. pneumoniae D39V; first compound 0.003 µg/mL, partner 0.5 µg/mL): 0.914 | fitness (S. pneumoniae D39V; first compound 0.003 µg/mL, partner 1 µg/mL): 0.852 | fitness (S. pneumoniae D39V; first compound 0.003 µg/mL, partner 2 µg/mL): 0.713 | fitness (S. pneumoniae D39V; first compound 0.006 µg/mL, partner 0.5 µg/mL, one replicate): 0.391 | fitness (S. pneumoniae D39V; first compound 0.006 µg/mL, partner 1 µg/mL, one replicate): 0.315 | fitness (S. pneumoniae D39V; first compound 0.006 µg/mL, partner 2 µg/mL, one replicate): 0.242

CC1(C)S[C@@H]2[C@H](NC(=O)[C@H](N)c3ccc(O)cc3)C(=O)N2[C@H]1C(=O)O [Amoxicillin] + O=C(O)c1cc(-c2ccc(F)cc2F)ccc1O [Diflunisal]
Bliss interaction score (S. aureus DSM 20231 [1]): 0.204

CO/N=C(\C(=O)N[C@@H]1C(=O)N2C(C(=O)[O-])=C(C[N+]3(C)CCCC3)CS[C@H]12)c1csc(N)n1 [Cefepime] + CC1(C)S[C@@H]2[C@H](NC(=O)Cc3ccccc3)C(=O)N2[C@H]1C(=O)O [Penicillin G]
fitness (S. aureus Newman; [11]): 0.868 | fitness (S. aureus Newman; [12]): 0.895 | fitness (S. aureus Newman; [13]): 0.871 | fitness (S. aureus Newman; [14]): 0.801 | fitness (S. aureus Newman; [15]): 0.811 | fitness (S. aureus Newman; [16]): 0.773 | fitness (S. aureus Newman; [17]): 0.712 | fitness (S. aureus Newman; [18]): 0.695 | fitness (S. aureus Newman; [19]): 0.704

CO/N=C(\C(=O)N[C@@H]1C(=O)N2C(C(=O)[O-])=C(C[N+]3(C)CCCC3)CS[C@H]12)c1csc(N)n1 [Cefepime] + CO[C@@]12[C@H](COC(N)=O)C3=C(C(=O)C(C)=C(N)C3=O)N1C[C@@H]1N[C@@H]12 [Mitomycin C]
fitness (S. aureus Newman; [20]): 0.749 | fitness (S. aureus Newman; [21]): 0.661 | fitness (S. aureus Newman; [22]): 0.556 | fitness (S. aureus Newman; [23]): 0.661 | fitness (S. aureus Newman; [24]): 0.592 | fitness (S. aureus Newman; [25]): 0.483 | fitness (S. aureus Newman; [26]): 0.621 | fitness (S. aureus Newman; [27]): 0.578 | fitness (S. aureus Newman; [28]): 0.522 | fitness (S. pneumoniae D39V; first compound 0.007 µg/mL, partner 0.002 µg/mL): 0.88 | fitness (S. pneumoniae D39V; first compound 0.007 µg/mL, partner 0.004 µg/mL): 0.803 | fitness (S. pneumoniae D39V; first compound 0.007 µg/mL, partner 0.008 µg/mL): 0.68 | fitness (S. pneumoniae D39V; first compound 0.0078 µg/mL, partner 0.001075 µg/mL): 0.976 | fitness (S. pneumoniae D39V; first compound 0.0078 µg/mL, partner 0.00215 µg/mL): 0.924 | fitness (S. pneumoniae D39V; first compound 0.0078 µg/mL, partner 0.0043 µg/mL): 0.867 | fitness (S. pneumoniae D39V; first compound 0.014 µg/mL, partner 0.002 µg/mL): 0.859 | fitness (S. pneumoniae D39V; first compound 0.014 µg/mL, partner 0.004 µg/mL): 0.819 | fitness (S. pneumoniae D39V; first compound 0.014 µg/mL, partner 0.008 µg/mL): 0.669 | fitness (S. pneumoniae D39V; first compound 0.0155 µg/mL, partner 0.001075 µg/mL): 0.98 | fitness (S. pneumoniae D39V; first compound 0.0155 µg/mL, partner 0.00215 µg/mL): 0.931 | fitness (S. pneumoniae D39V; first compound 0.0155 µg/mL, partner 0.0043 µg/mL): 0.857 | fitness (S. pneumoniae D39V; first compound 0.028 µg/mL, partner 0.002 µg/mL): 0.716 | fitness (S. pneumoniae D39V; first compound 0.028 µg/mL, partner 0.004 µg/mL): 0.7 | fitness (S. pneumoniae D39V; first compound 0.028 µg/mL, partner 0.008 µg/mL): 0.628 | fitness (S. pneumoniae D39V; first compound 0.031 µg/mL, partner 0.001075 µg/mL): 0.708 | fitness (S. pneumoniae D39V; first compound 0.031 µg/mL, partner 0.00215 µg/mL): 0.647 | fitness (S. pneumoniae D39V; first compound 0.031 µg/mL, partner 0.0043 µg/mL): 0.63 | fitness (S. aureus DSM 20231 [2]; [20]): 0.685 | fitness (S. aureus DSM 20231 [2]; [21]): 0.653 | fitness (S. aureus DSM 20231 [2]; [22]): 0.568 | fitness (S. aureus DSM 20231 [2]; [23]): 0.63 | fitness (S. aureus DSM 20231 [2]; [24]): 0.617 | fitness (S. aureus DSM 20231 [2]; [25]): 0.578 | fitness (S. aureus DSM 20231 [2]; [26]): 0.632 | fitness (S. aureus DSM 20231 [2]; [27]): 0.572 | fitness (S. aureus DSM 20231 [2]; [28]): 0.549

CCCCCCCCCC(=O)N[C@@H](Cc1c[nH]c2ccccc12)C(=O)N[C@H](CC(N)=O)C(=O)N[C@@H](CC(=O)O)C(=O)N[C@@H]1C(=O)NCC(=O)N[C@@H](CCCN)C(=O)N[C@@H](CC(=O)O)C(=O)N[C@H](C)C(=O)N[C@@H](CC(=O)O)C(=O)NCC(=O)N[C@H](CO)C(=O)N[C@@H]([C@H](C)CC(=O)O)C(=O)N[C@@H](CC(=O)c2ccccc2N)C(=O)O[C@@H]1C [Daptomycin] + CC1(C)S[C@@H]2[C@H](NC(=O)Cc3ccccc3)C(=O)N2[C@H]1C(=O)O [Penicillin G]
fitness (S. aureus Newman; [11]): 0.926 | fitness (S. aureus Newman; [12]): 0.939 | fitness (S. aureus Newman; [13]): 0.961 | fitness (S. aureus Newman; [14]): 0.958 | fitness (S. aureus Newman; [15]): 0.942 | fitness (S. aureus Newman; [16]): 0.957 | fitness (S. aureus Newman; [17]): 0.925 | fitness (S. aureus Newman; [18]): 0.972 | fitness (S. aureus Newman; [19]): 0.915
